Reference: patent US20110053770A1, “SUBSTITUTED AMINOTHIAZOLES AND THEIR USE AS FUNGICIDES” (BAYER CROPSCIENCE AG, priority 2009, published 2011)
Like-named read-outs stand apart in the source and are kept apart here. Marks after values point to notes of the source that are not given here.

Test: logP by HPLC on reversed-phase columns (C 18), EEC directive 79/831 Annex V.A8
Type: physicochemical
Conditions: for log P (**): pH 2.7, 0.1% aqueous formic acid and acetonitrile; for chromatographic logP: reversed-phase HPLC column (C 18)
Procedure: Calibration was carried out using unbranched alkan-2-ones (having from 3 to 16 carbon atoms) with known logP values (the logP values were determined by the retention times using linear interpolation between two successive alkanones).

[1] = LC-MS, neutral range, pH 7.8, 0.001 molar aqueous ammonium bicarbonate and acetonitrile
[2] = acidic range, pH 2.3, 0.1% aqueous phosphoric acid and acetonitrile

| Structure (SMILES) | log P (**) (LC-MS, acidic range) | log P (***) [1] | log P (*) [2] | chromatographic logP (LC-MS, neutral range, pH 7.8, 0.001 molar aqueous ammonium bicarbonate and acetonitrile, read-out: log P (***)) | chromatographic logP (acidic range, pH 2.3, 0.1% aqueous phosphoric acid and acetonitrile, read-out: log P (*)) |
| --- | --- | --- | --- | --- | --- |
| CC(=O)N1CCCCC1=Nc1nc(-c2cccc(Cl)c2Cl)cs1 [compound 36, 1-[(2E/Z)-2-{[4-(2,3-dichlorophenyl)-1,3-thiazol-2-yl]imino}piperidin-1-yl]ethanone] | 4.03 | 4.02 | 4.03 | – | – |
| CC(=O)N1CCCCC1=Nc1nc(-c2cccc(F)c2F)cs1 [compound 37, 1-[(2E/Z)-2-{[4-(2,3-difluorophenyl)-1,3-thiazol-2-yl]imino}piperidin-1-yl]ethanone] | 3.63**; 3.63***; 3.63* | 3.63**; 3.63***; 3.63* | 3.63**; 3.63***; 3.63* | – | – |
| CC(=O)N1CCCCC1=Nc1nc(-c2cccc(C(F)(F)F)c2F)cs1 [compound 38, 1-[(2E/Z)-2-({4-[2-fluoro-3-(trifluoromethyl)phenyl]-1,3-thiazol-2-yl}imino)piperidin-1-yl]ethanone] | 4.25 | 4.23 | 4.25 | – | – |
| CC(=O)N1CCCCC1=Nc1nc(-c2ccc3c(c2)OCO3)cs1 [compound 39, 1-[(2E/Z)-2-{[4-(1,3-benzodioxol-5-yl)-1,3-thiazol-2-yl]imino}piperidin-1-yl]ethanone] | 2.96 | 2.95 | 2.96 | – | – |
| CC(=O)N1CCCCC1=Nc1nc(-c2cc(F)cc(F)c2)cs1 [compound 40, 1-[(2E/Z)-2-{[4-(3,5-difluoro-phenyl)-1,3-thiazol-2-yl]imino}piperidin-1-yl]ethanone] | 3.63 | 3.62 | 3.63 | – | – |
| CC(=O)N1CCCCC1=Nc1nc(-c2ccc(F)c(Cl)c2)cs1 [compound 41, 1-[(2E/Z)-2-{[4-(3-chloro-4-fluorophenyl)-1,3-thiazol-2-yl]imino}piperidin-1-yl]ethanone] | 3.88**; 3.88***; 3.88* | 3.88**; 3.88***; 3.88* | 3.88**; 3.88***; 3.88* | – | – |
| CC(=O)N1CCCCC1=Nc1nc(-c2ccc(Cl)cc2)c(C)s1 [compound 42, 1-[(2E/Z)-2-{[4-(4-chlorophenyl)-5-methyl-1,3-thiazol-2-yl]imino}piperidin-1-yl]ethanone] | 3.92 | 3.96 | 3.92 | – | – |
| CC(=O)N1CCCCC1=Nc1nc(-c2cccc(F)c2F)c(C)s1 [compound 43, 1-[(2E/Z)-2-{[4-(2,3-difluorophenyl)-5-methyl-1,3-thiazol-2-yl]imino}piperidin-1-yl]ethanone] | 3.37**; 3.37***; 3.37* | 3.37**; 3.37***; 3.37* | 3.37**; 3.37***; 3.37* | – | – |
| Cc1sc(N=C2CCCCN2)nc1-c1cccc(F)c1F [compound 44, 4-(2,3-difluorophenyl)-5-methyl-N-[(2E/Z)-piperidin-2-ylidene]-1,3-thiazole-2-amine] | 1.7 | 3.2 | 1.7 | – | – |
| FC(F)(F)c1cccc(-c2csc(N=C3CCCCN3)n2)c1 [compound 45, N-[(2E/Z)-piperidin-2-ylidene]-4-[3-(trifluoromethyl)phenyl]-1,3-thiazole-2-amine] | 1.97 | 3.55 | – | – | – |
| Brc1cccc(-c2csc(N=C3CCCCN3)n2)c1 [compound 46, 4-(3-bromophenyl)-N-[(2E/Z)-piperidin-2-ylidene]-1,3-thiazole-2-amine] | 1.8** | – | – | – | – |
| CC(C)(C)Cc1cccc(-c2csc(N=C3CCCCN3)n2)c1 [compound 47, 4-[3-(2,2-dimethylpropyl)phenyl]-N-[(2E/Z)-piperidin-2-ylidene]-1,3-thiazole-2-amine] | 2.51 | 4.86 | – | – | – |
| Brc1ccccc1-c1csc(N=C2CCCCN2)n1 [compound 48, 4-(2-bromophenyl)-N-[(2E/Z)-piperidin-2-ylidene]-1,3-thiazole-2-amine] | 1.58 | 3.25 | – | – | – |
| FC(F)Oc1ccc(-c2csc(N=C3CCCCN3)n2)cc1 [compound 49, 4-[4-(difluoromethoxy)phenyl]-N-[(2E/Z)-piperidin-2-ylidene]-1,3-thiazole-2-amine] | 1.44** | – | – | – | – |
| FC(F)(F)Oc1ccc(-c2csc(N=C3CCCCN3)n2)cc1 [compound 50, N-[(2E/Z)-piperidin-2-ylidene]-4-[4-(trifluoromethoxy)phenyl]-1,3-thiazole-2-amine] | 1.78** | – | – | – | – |
| Clc1cccc(Cl)c1-c1csc(N=C2CCCCN2)n1 [compound 51, 4-(2,6-dichlorophenyl)-N-[(2E/Z)-piperidin-2-ylidene]-1,3-thiazole-2-amine] | 1.42** | – | – | – | – |
| Clc1ccc(-c2csc(N=C3CCCCN3)n2)cc1Cl [compound 52, 4-(3,4-dichlorophenyl)-N-[(2E/Z)-piperidin-2-ylidene]-1,3-thiazole-2-amine] | – | – | – | 3.93 | 1.68 |
| Clc1ncccc1-c1csc(N=C2CCCCN2)n1 [compound 53, 4-(2-chloropyridin-3-yl)-N-[(2E/Z)-piperidin-2-ylidene]-1,3-thiazole-2-amine] | – | – | 0.71* | – | – |
| Fc1ccc(-c2csc(N=C3CCCCN3)n2)cc1 [compound 54, 4-(4-fluorophenyl)-N-[(2E/Z)-piperidin-2-ylidene]-1,3-thiazole-2-amine] | – | – | 1.23* | – | – |
| Clc1cc(Cl)cc(-c2csc(N=C3CCCCN3)n2)c1 [compound 55, 4-(3,5-dichlorophenyl)-N-[(2E/Z)-piperidin-2-ylidene]-1,3-thiazole-2-amine] | – | 4.21 | 1.59 | – | – |

| Structure (SMILES) | log P (**) (LC-MS, acidic range) | log P (***) [1] | log P (*) [2] | chromatographic logP (LC-MS, neutral range, pH 7.8, 0.001 molar aqueous ammonium bicarbonate and acetonitrile, read-out: log P (***)) | chromatographic logP (acidic range, pH 2.3, 0.1% aqueous phosphoric acid and acetonitrile, read-out: log P (*)) |
| --- | --- | --- | --- | --- | --- |
| COc1ccc(-c2csc(N=C3CCCCN3)n2)cc1 [compound 56, 4-(4-methoxyphenyl)-N-[(2E/Z)-piperidin-2-ylidene]-1,3-thiazole-2-amine] | – | – | 1.18* | – | – |
| COc1cccc(-c2csc(N=C3CCCCN3)n2)c1 [compound 57, 4-(3-methoxyphenyl)-N-[(2E/Z)-piperidin-2-ylidene]-1,3-thiazole-2-amine] | – | 2.76 | 1.19 | – | – |
| Clc1cccc(-c2csc(N=C3CCCCN3)n2)c1 [compound 59, 4-(3-chlorophenyl)-N-[(2E/Z)-piperidin-2-ylidene]-1,3-thiazole-2-amine] | 1.37** | – | – | – | – |
| Cc1cccc(-c2csc(N=C3CCCCN3)n2)c1 [compound 60, 4-(3-methylphenyl)-N-[(2E/Z)-piperidin-2-ylidene]-1,3-thiazole-2-amine] | – | – | 1.32* | – | – |
| c1ccc(-c2csc(N=C3CCCCN3)n2)nc1 [compound 61, N-[(2E/Z)-piperidin-2-ylidene]-4-(pyridin-2-yl)-1,3-thiazole-2-amine] | 0.27** | – | – | – | – |
| Cc1cccc(-c2csc(N=C3CCCCN3)n2)n1 [compound 62, 4-(6-methylpyridin-2-yl)-N-[(2E/Z)-piperidin-2-ylidene]-1,3-thiazole-2-amine] | – | 2.13 | 0.29 | – | – |
| Clc1ccc(-c2csc(N=C3CCCCN3)n2)cn1 [compound 63, 4-(6-chloropyridin-3-yl)-N-[(2E/Z)-piperidin-2-ylidene]-1,3-thiazole-2-amine] | – | 2.38 | 0.94 | – | – |
| c1ccc(-c2ccccc2-c2csc(N=C3CCCCN3)n2)cc1 [compound 64, 4-(biphenyl-2-yl)-N-[(2E/Z)-piperidin-2-ylidene]-1,3-thiazole-2-amine] | 1.82** | – | – | – | – |
| Cc1cccc(-c2ccccc2-c2csc(N=C3CCCCN3)n2)c1 [compound 65, 4-(3′-methylbiphenyl-2-yl)-N-[(2E/Z)-piperidin-2-ylidene]-1,3-thiazole-2-amine] | 2** | – | – | – | – |
| Clc1ccc(-c2ccccc2-c2csc(N=C3CCCCN3)n2)cc1Cl [compound 66, 4-(3′,4′-dichloro-biphenyl-2-yl)-N-[(2E/Z)-piperidin-2-ylidene]-1,3-thiazole-2-amine] | 2.2** | – | – | – | – |
| COc1ccc(-c2ccccc2-c2csc(N=C3CCCCN3)n2)cc1 [compound 67, 4-(4′-methoxybiphenyl-2-yl)-N-[(2E/Z)-piperidin-2-ylidene]-1,3-thiazole-2-amine] | 1.83** | – | – | – | – |
| COc1ccc(-c2cccc(-c3csc(N=C4CCCCN4)n3)c2)cc1 [compound 68, 4-(4′-methoxybiphenyl-3-yl)-N-[(2E/Z)-piperidin-2-ylidene]-1,3-thiazole-2-amine] | – | 3.88 | 1.85 | – | – |
| Clc1ccccc1Cc1csc(N=C2CCCCN2)n1 [compound 69, 4-(2-chlorobenzyl)-N-[(2E/Z)-piperidin-2-ylidene]-1,3-thiazole-2-amine] | – | – | 1.39* | – | – |
| Clc1cccc(Cc2csc(N=C3CCCCN3)n2)c1 [compound 70, 4-(3-chlorobenzyl)-N-[(2E/Z)-piperidin-2-ylidene]-1,3-thiazole-2-amine] | – | 3.36 | 1.58 | – | – |
| Cc1cccc(-c2cccc(-c3csc(N=C4CCCCN4)n3)c2)c1 [compound 71, 4-(3′-methylbiphenyl-3-yl)-N-[(2E/Z)-piperidin-2-ylidene]-1,3-thiazole-2-amine] | – | 4.48 | 2.12 | – | – |
| c1sc(N=C2CCCCN2)nc1CC1CC1 [compound 72, 4-(cyclopropylmethyl)-N-[(2E/Z)-piperidin-2-ylidene]-1,3-thiazole-2-amine] | – | 2.73 | 1.07 | – | – |
| CC(c1ccccc1)c1csc(N=C2CCCCN2)n1 (stereo not shown) [compound 73, 4-(1-phenylethyl)-N-[(2E/Z)-piperidin-2-ylidene]-1,3-thiazole-2-amine] | – | 3.27 | 1.51 | – | – |
| Clc1ccc(Oc2ccccc2-c2csc(N=C3CCCCN3)n2)cc1 [compound 74, 4-[2-(4-chlorophenoxy)phenyl]-N-[(2E/Z)-piperidin-2-ylidene]-1,3-thiazole-2-amine] | – | – | 2.03* | – | – |
| Fc1ccc(Oc2ccccc2-c2csc(N=C3CCCCN3)n2)cc1 [compound 75, 4-[2-(4-fluorophenoxy)phenyl]-N-[(2E/Z)-piperidin-2-ylidene]-1,3-thiazole-2-amine] | – | – | 1.87* | – | – |
